Holding throughout (type): cell-based
Assay [1] concerns P. falciparum (K1). Nature of the assay: Assay 1: anti-malarial in vitro efficacy, P. falciparum K1. As to conditions: Plasmodium falciparum; strain K1, assay 1. As for the experimental part:
(§1) The ability of aminopyridine derivatives according to the invention to kill P. falciparum parasites and/or to inhibit its proliferation was tested as follows:
(§2) Assay 1: The protocol used was as described in the supplemental material to Fiddock et al., 2004, Nature Reviews Drug Discovery, (3), p 509. […]

The test system of assay [2] is P. falciparum (NF54). In words: Assay 1: anti-malarial in vitro efficacy, P. falciparum NF54. The following applies: Plasmodium falciparum; strain NF54, assay 1. As for the experimental part: as §1, §2
The subject of assay [3] is P. falciparum (3D7). Nature of the assay: Assay 2: DAPI imaging assay of parasite replication, P. falciparum 3D7. The following applies: Plasmodium falciparum, strain 3D7, 1.8 μM, 72 hours. As for the experimental part:
as §1
(§3) Assay 2: Compounds were incubated in the presence of 2 or 3% ring stage parasite (P. falciparum 3D7 or Dd2) and 0.3% hematocrite in a total assay volume of 50 μL, for 72 hours in a humidified atmosphere at 37° C., 5% O2 and 5% CO2, in Poly-D-lysine coated Cell Carrier Imaging plates (Perkin Elmer). After incubation plates were stained with DAPI (4′,6-diamidino-2-phenylindole, Invitrogen) in the presence of Saponin and Triton X-100 (Sigma-Aldrich) and incubated for a further 5 hours at RT in the dark before imaging on the OPERATM HTS confocal imaging system (Perkin Elmer). The digital images obtained were then analyzed using the PerkinElmer Acapella spot detection software where spots which fulfil the criteria established for a stained parasite are counted. The % inhibition of parasite replication was calculated using DMSO and 2 μM Artemisinin control data. Measured % inhibition and EC50 (ng/ml) are reported in Tables 5 & 6 below against different strains of P. falciparum K1, NF54 (assay 1) and 3D7, Dd2 (assay 2), respectively).

Assay [4] has as its system P. falciparum (Dd2). Nature of the assay: Assay 2: DAPI imaging assay of parasite replication, P. falciparum Dd2. As to conditions: Plasmodium falciparum, strain Dd2, 1.8 μM, 72 hours. As for the experimental part:
as §1, §3

≈ marks a conversion by molar mass, not a printed value.

For `CN(C)CC(=O)Nc1ccc(-c2cc(-c3ccc(S(C)(=O)=O)cc3)cnc2N)cc1` [Compound 75, N-{4-[2-amino-5-(4-(methylsulfonyl)phenyl)pyridin-3-yl]phenyl}-2-(dimethylamino) acetamide], the results for the EC50 in assay [1] and in assay [2] were 0.11 mg/L (≈ 0.259 µM) and 0.088 mg/L (≈ 0.207 µM), respectively.
The matching figures for `CS(=O)(=O)c1ccc(-c2cnc(N)c(-c3ccc4ncccc4c3)c2)cc1` [Compound 59, 5-[4-(methylsulfonyl)phenyl]-3-(quinolin-6-yl) pyridin-2-amine]: 0.098 mg/L (≈ 0.261 µM) and 0.107 mg/L (≈ 0.285 µM).
In the case of `CS(=O)(=O)c1ccc(-c2cnc(N)c(-c3cccc(C(F)(F)F)c3)c2)cc1` [Compound 2, 5-(4-methylsulfonylphenyl)-3-[3-(trifluoromethyl)phenyl]pyridin-2-amine], the EC50 in assay [1] was determined as 0.031 mg/L (≈ 0.079 µM); in assay [2], 0.041 mg/L (≈ 0.104 µM). Moreover, the inhibition at 1.8 µM is 99% in assay [3] and 96% in assay [4].
For the compound `CNC(=O)c1ccc(-c2cc(-c3ccc(S(C)(=O)=O)cc3)cnc2N)cc1` [Compound 29, 4-{2-amino-5-[4-(methylsulfonyl)-phenyl]pyridin-3-yl}-N-methyl benzamide], the values for the EC50 in assay [1] and in assay [2] were 0.026 mg/L (≈ 0.0682 µM) and 0.03 mg/L (≈ 0.0786 µM), respectively.
Turning to `CN1CCN(c2ccc(-c3cc(-c4ccc(O)cc4)cnc3N)cc2)CC1` [Compound 9, 4-[6-amino-5-[4-(4-methylpiperazin-1-yl)phenyl]pyridin-3-yl]phenol], the inhibition at 1.8 µM came out at 76% in assay [3] and 53% in assay [4].
As for `CC(=O)Nc1ccc(-c2cc(-c3ccc(S(C)(=O)=O)cc3)cnc2N)cn1` [Compound 79, N-{5-[2-amino-5-(4-(methylsulfonyl)-phenyl)pyridin-3-yl]pyridin-2-yl}acetamide], the EC50 in assay [1] came out at 0.046 mg/L (≈ 0.12 µM); in assay [2], 0.047 mg/L (≈ 0.123 µM).
The matching figures for `NC(=O)c1ccc(-c2cc(-c3ccc(C(=O)N4CCOCC4)cc3)cnc2N)cc1` [Compound 71, {4-[2-amino-3-(4-carbamoyl phenyl)pyridin-5-yl]phenyl}-(morpholino) methanone]: 0.0068 mg/L (≈ 0.0169 µM) and 0.0079 mg/L (≈ 0.0196 µM).
In turn, `CS(=O)(=O)c1ccc(-c2cnc(N)c(-c3ccc(C(F)(F)F)nc3)c2)cc1` [Compound 44, 3-[2-(trifluoromethyl)pyridin-5-yl]-5-[4-(methylsulfonyl)phenyl] pyridin-2-amine] returned an EC50 in assay [1] of 0.01 mg/L (≈ 0.0254 µM).
In the case of `COc1ncc(-c2cc(-c3ccc(S(C)(=O)=O)cc3)cnc2N)cn1` [Compound 31, 3-(2-methoxypyrimidin-5-yl)-5-[4-(methylsulfonyl)phenyl]pyridin-2-amine], the figures for the EC50 in assay [1] and in assay [2] were 0.098 mg/L (≈ 0.275 µM) and 0.093 mg/L (≈ 0.261 µM), respectively.
On to `COc1ccc(-c2cc(-c3ccc(S(C)(=O)=O)cc3)cnc2N)cn1` [Compound 1, 3-(6-Methoxypyridin-3-yl)-5-(4-methylsulfonylphenyl) pyridin-2-amine], for which, in assay [1], the EC50 stood at 0.014 mg/L (≈ 0.0394 µM).
For the compound `CS(=O)(=O)c1ccc(-c2cnc(N)c(-c3cnc(N)nc3)c2)cc1` [Compound 55, 5-{2-amino-5-[4-(methylsulfonyl)-phenyl]pyridin-3-yl}pyrimidin-2-amine], the 50% effective concentration (EC50) came out at 0.041 mg/L (≈ 0.12 µM) in assay [1] and 0.04 mg/L (≈ 0.117 µM) in assay [2].
For `CS(=O)(=O)c1ccc(-c2cnc(N)c(-c3ccc(C(N)=O)cc3)c2)cc1` [Compound 28, 4-{2-amino-5-[4-(methylsulfonyl)phenyl]pyridin-3-yl} benzamide], the concentration for a half-maximal effect (EC50) in assay [1] and in assay [2] was 0.01 mg/L (≈ 0.0272 µM) each time.
Consider `Cc1cc(-c2cnc(N)c(-c3ccc(N4CCN(C)CC4)cc3)c2)cc(C)c1O` [Compound 7, 4-[6-amino-5-[4-(4-methylpiperazin-1-yl)phenyl]pyridin-3-yl]-2,6-dimethylphenol], for which the figures for the inhibition at 1.8 µM in assay [3] and in assay [4] were 93% and 96%, respectively.
Turning to `Cc1ccc(-c2cc(-c3ccc(S(C)(=O)=O)cc3)cnc2N)cn1` [Compound 43, 3-(2-methylpyridin-5-yl)-5-[4-(methylsulfonyl)phenyl] pyridin-2-amine], the concentration for a half-maximal effect (EC50) in assay [1] turned out to be 0.0098 mg/L (≈ 0.0289 µM); in assay [2], 0.0094 mg/L (≈ 0.0277 µM).
`COc1ccc(-c2cc(-c3ccc(CO)cc3)cnc2N)cn1` [Compound 8, [4-[6-amino-5-(6-methoxypyridin-3-yl)pyridin-3-yl]phenyl]methanol] yielded an inhibition at 1.8 µM in assay [3] of 83%.
Turning to `CS(=O)(=O)c1ccc(-c2cnc(N)c(-c3cccc(C#N)c3)c2)cc1` [Compound 26, 3-{2-amino-5-[4-(methylsulfonyl)-phenyl]pyridin-3-yl}benzonitrile], the EC50 in assay [1] was found to be 0.059 mg/L (≈ 0.169 µM); in assay [2] it was 0.061 mg/L (≈ 0.175 µM).
For `CS(=O)(=O)c1ccc(-c2cnc(N)c(-c3ccc(OC(F)(F)F)cc3)c2)cc1` [Compound 37, 5-[4-(methylsulfonyl)phenyl]-3-[4-(trifluoromethoxy)phenyl]pyridin-2-amine], in that order: 0.097 mg/L (≈ 0.238 µM) and 0.099 mg/L (≈ 0.242 µM).
For `CS(=O)(=O)c1ccc(-c2cnc(N)c(-c3ccc(S(C)(=O)=O)cc3)c2)cc1` [Compound 17, 3,5-di-[4-(methylsulfonyl)phenyl]pyridin-2-amine], in that order: 0.032 mg/L (≈ 0.0795 µM) and 0.031 mg/L (≈ 0.077 µM).
For the compound `COc1ccc(-c2cnc(N)c(-c3ccc(O)c(OC)c3)c2)cn1` [Compound 6, 4-[2-amino-5-(6-methoxypyridin-3-yl)pyridin-3-yl]-2-methoxyphenol], the inhibition at 1.8 µM in assay [3] and in assay [4] was 98% throughout.
In the case of `CS(=O)(=O)c1ccc(-c2cnc(N)c(-c3cccc(O)c3)c2)cc1` [Compound 3, 3-[2-amino-5-(4-methylsulfonylphenyl)pyridin-3-yl]phenol], the inhibition at 1.8 µM in assay [3] was determined as 99%; in assay [4], 94%.
Turning to `CS(=O)(=O)c1ccc(-c2cnc(N)c(-c3ccc(-n4cccn4)cc3)c2)cc1` [Compound 47, 3-[4-(1H-pyrazol-1-yl)phenyl]-5-[4-(methylsulfonyl)phenyl] pyridin-2-amine], the EC50 turned out to be 0.085 mg/L (≈ 0.218 µM) in assay [1] and 0.089 mg/L (≈ 0.228 µM) in assay [2].
As for `COc1cc(-c2cc(-c3ccc(S(C)(=O)=O)cc3)cnc2N)ccc1O` [Compound 4, 4-[2-amino-5-(4-methylsulfonylphenyl)pyridin-3-yl]-2-methoxyphenol], the inhibition at 1.8 µM in assay [3] is 99%; in assay [4], 96%.
With `CS(=O)(=O)c1ccc(-c2cnc(N)c(-c3ccc(CO)nc3)c2)cc1` [Compound 69, {5-[2-amino-5-(4-(methylsulfonyl)-phenyl)pyridin-3-yl]pyridin-2-yl}methanol], the EC50 is 0.06 mg/L (≈ 0.169 µM) in assay [1] and 0.061 mg/L (≈ 0.172 µM) in assay [2].
For `Cc1ccc(-c2cc(-c3ccc(S(C)(=O)=O)cc3)cnc2N)cc1` [Compound 65, 5-[4-(methylsulfonyl)phenyl]-3-p-tolylpyridin-2-amine], in that order: 0.033 mg/L (≈ 0.0975 µM) and 0.034 mg/L (≈ 0.1 µM).
With `CS(=O)(=O)c1ccc(-c2cnc(N)c(-c3ccc(C#N)cc3)c2)cc1` [Compound 25, 4-{2-amino-5-[4-(methylsulfonyl)-phenyl]pyridin-3-yl}benzonitrile], the EC50 in assay [1] worked out at 0.051 mg/L (≈ 0.146 µM); in assay [2], 0.056 mg/L (≈ 0.16 µM).
For `CS(=O)(=O)c1ccc(-c2cnc(N)c(-c3ccc(S(C)(=O)=O)nc3)c2)cc1` [Compound 78, 5-[4-(methylsulfonyl)phenyl]-3-[2-(methylsulfonyl)-pyridin-5-yl]pyridin-2-amine], in that order: 0.11 mg/L (≈ 0.273 µM) and 0.094 mg/L (≈ 0.233 µM).
As for `CS(=O)(=O)c1ccc(-c2cnc(N)c(-c3ccc(C(F)(F)F)cc3)c2)cc1` [Compound 85, 3-[4-(trifluoromethyl)phenyl]-5-[4-(methylsulfonyl)phenyl]pyridin-2-amine], the EC50 in assay [1] turned out to be 0.0086 mg/L (≈ 0.0219 µM); in assay [2], 0.0081 mg/L (≈ 0.0206 µM).
With `CS(=O)(=O)c1ccc(-c2cnc(N)c(-c3ccc(O)cc3)c2)cc1` [Compound 5, 4-[2-amino-5-(4-methylsulfonylphenyl)pyridin-3-yl]phenol], the inhibition at 1.8 µM in assay [3] and in assay [4] was 98% each time.
For `CS(=O)(=O)c1ccc(-c2cnc(N)c(-c3cccc(OC(F)(F)F)c3)c2)cc1` [Compound 36, 5-[4-(methysulfonyl)phenyl]-3-[3-(trifluoromethoxy)phenyl] pyridin-2-amine], the half-maximal effective concentration (EC50) stood at 0.074 mg/L (≈ 0.181 µM) in assay [1] and 0.078 mg/L (≈ 0.191 µM) in assay [2].
With `CS(=O)(=O)c1ccc(-c2cnc(N)c(-c3ccnc(C(F)(F)F)c3)c2)cc1` [Compound 42, 3-[2-(trifluoromethyl)pyridin-4-yl]-5-[4-(methylsulfonyl)phenyl] pyridin-2-amine], the EC50 in assay [1] turned out to be 0.061 mg/L (≈ 0.155 µM); in assay [2], 0.071 mg/L (≈ 0.18 µM).
For `NC(=O)c1ccc(-c2cnc(N)c(-c3ccc(C(N)=O)cc3)c2)cc1` [Compound 80, 4-[2-amino-3-(4-benzamido)pyridin-5-yl]benzamide], in that order: 0.028 mg/L (≈ 0.0842 µM) and 0.025 mg/L (≈ 0.0752 µM).

In general, EC50 refers to the concentration that produces a half-maximal response. A high value points to a need for much substance. Broadly, the inhibition is the relative decrease from the control value, in per cent. Read a low inhibition as little suppression.

(Values after patent US9024033B2, “Anti-malarial agents” (MMV Medicines for Malaria Venture, priority 2010, dated 2015).)
